{"source": "patent US20080009573A1", "about": "“Labeled tackifiers” (priority 2006, published 2008)"}
{"compound": "C=CCN1C(=O)c2cccc3c(CNCCOC(=O)C4(C)CCCC5(C)C6CCC(C(C)C)=CC6=CCC45)ccc(c23)C1=O", "note": "(stereo not shown) [Compound 17, 7-Isopropyl-1,4a-dimethyl-1,2,3,4,4a,4b,5,6,10,10a-decahydro-phenanthrene-1-carboxylic acid 2-[(2-allyl-1,3-dioxo-2,3-dihydro-1H-benzo[de]isoquinolin-6-yl)methylamino]ethyl ester]", "values": [{"measurement": "melting point", "result": "64 to 66", "unit": "°C"}]}
